Experiments:
[1] = patients; variable in different patients; cited from earlier work
[2] = test system: resistance arteries of the human penis; test: Relaxation of noradrenaline-contracted human penile resistance arteries induced by sodium nitroprussiate (myograph); conditions: 10 μM; arteries contracted with 1 μM noradrenaline; FIG. 1
Experimental: (§1) To study the enhancing effect of medicinal products used to facilitate penile erection in man a series of studies were carried out of the resistance arteries of the human penis, obtained from patients submitted to penile prosthesis implantation.
(§2) Specimens of human cavernous bodies of the penis were obtained from patients with impotence while these were intervened for prosthetic implantation, as described previously (Gupta et al.; Br. J. Pharmacol., 116: 2201, 1995). The tissues were deposited in M-400 solution (pH 7.4; 400 mOsm/kg. Composition in w/v: 4.19% manitole, 0.2% KH2PO4, 0.97% K2HPO4.3 H2O, 0.11% KCl and 0.08% NaHCO3) at 4° C. at the moment of explant and were transported to the laboratory to be used within the following 16 h.
(§3) The resistance arteries of the penis, helicine arteries (with a luminal diameter of 150-400 μm), which are terminal branches of the deep arteries of the penis, were dissected carefully removing the surrounding trabecular tissue and were cut into 2 mm long arterial segments that were arranged on two wires of 40 μm diameter in a Halpern-Mulvany myograph (J.P. Trading, Aarhus, Denmark) to record […]. […] The arteries were contracted with 1 μM of noradrenaline and their relaxation responses were assessed after adding to the cavities increasing amounts of the different compounds. […]

[3] = test system: resistance arteries of the human penis; test: Relaxation of noradrenaline-contracted human penile resistance arteries induced by sildenaphyl (myograph); conditions: 10 μM; arteries contracted with 1 μM noradrenaline; FIG. 2
Experimental: as §1, §2, §3

[4] = test system: nitrergic terminations in resistance arteries of the human penis; test: Relaxation of human penile resistance arteries induced by transmural electrical stimulation of nitrergic terminations (myograph)
Experimental: as §1, §2, §3

| Structure (SMILES) | therapeutic response [1] | effect on the relaxation produced by different concentrations of sodium nitroprussiate (SNP) [2] | effect on the relaxation produced by different concentrations of sildenaphyl [3] | effect on the effects of 10 nM of sildenaphyl on the relaxation produced by electrical stimulation ([4]; 10 μM combined with 10 nM sildenaphyl, increasing frequencies, FIG. 4) | effect on the relaxation produced by electrical stimulation at increasing frequencies of the nitrergic terminations ([4]; 10 μM, TES 0.5, 1, 2 and 6 Hz, FIG. 3) |
| --- | --- | --- | --- | --- | --- |
| CCCc1nn(C)c2c(=O)[nH]c(-c3cc(S(=O)(=O)N4CCN(C)CC4)ccc3OCC)nc12 [sildenaphyl] | ≤ 50% | – | – | – | – |
| O=S(=O)([O-])c1cc(O)ccc1O.O=S(=O)([O-])c1cc(O)ccc1O.[Ca+2] [Calcium dobesylate, Calcium 2,5-dihidroxybenzenosulphonate] | – | increases, in a statistically significant manner, the relaxation | increases, in a statistically significant manner, the relaxation | increases, in a statistically significant manner, the effects of 10 nM of sildenaphyl | increases, in a statistically significant manner, the relaxation |
